Laboratory results: patent publication US10480032B2, “Use of EI24 gene” (UNIVERSITY-INDUSTRY FOUNDATION, YONSEI UNIVERSITY, priority 2016, dated 2019)

Test system: PC9-GR cells expressing exogenous EI24 (9GR-O/E)
Assay: MTT assay in gefitinib-resistant PC9-GR cells over-expressing EI24
Format: cell-based, human
Conditions: 20 μM gefitinib, ectopic expression of EI24 in PC9-GR, FIG. 3
Procedure: A PC9 EGFR-mutant NSCLC cell line and its gefitinib-resistant derivative (PC9-GR) are described in a document by S. M. Kim et al. (Mol. Cancer Ther. vol. 11, pp. 2254-2264(2012)). All cells were cultured in an RPMI 1640 medium supplemented with 10% […]. A human EI24-overexpressing cell line and a control cell line were established by transfection with a plasmid including FLAG-tagged EI24 and the corresponding empty vector (pcDNA3.1), respectively. Human EI24-knockdown cell lines were established using a method described in a document by J. M. Choi et al. (Oncotarget, vol. 4, pp. 2383-2396(2013)). The shRNA sequences are as follows:
Cells were seeded at a density of 3×10^4 cells/well in a 96-well culture plate and incubated for 24 hours. The cells were exposed to drugs for 48 hours, and 0.4 mg/ml MTT was added until reaching a mid-height of each well. After incubating at 37° C. for 4 hours, formazan crystals in viable cells were solubilized with 100 μl of dimethyl sulfoxide (DMSO). The optical density of the formazan product was read at 590 nm on a microreader (Bio-Rad). All experiments were repeated three times.
In addition, the EI24 gene was over-expressed in a gefitinib-resistant cell line (PC9-GR) among PC9 cell lines and gefitinib was added thereto, and EI24 expression and apoptosis were measured through immunoblotting analysis and MTT assay, respectively. […]

COc1cc2ncnc(Nc3ccc(F)c(Cl)c3)c2cc1OCCCN1CCOCC1 [gefitinib]
cell viability: up to 18%
